Some test systems named below: SN12C renal; T-47D breast; SF-295 CNS; KM12 colon; SNB-19 CNS; MCF7 breast; NCI-H460 lung; UACC-257 melanoma; RPMI-8226 leukemia; UACC-62 melanoma.
Holding throughout (experiment): NCI tumour cell line growth inhibition, 48 h

Structures are written as SMILES.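 Step 1: Grow cells in 96-well plates. Step 2: Expose to compound for 48 hours at 5 concentrations. Step 3: Interpolate endpoints linearly; if unreached, use highest concentration. TGI is the concentration that stops growth completely.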 Some results are limits rather than exact numbers.

In the case of `O=C(Nc1ccc(F)cc1)c1cc2c(cc1Cl)Sc1nccn1S2(=O)=O`, the TGI in the test on SN12C renal, in the test with T-47D breast, in the test on SF-295 CNS, in the test with KM12 colon, in the test with SNB-19 CNS and in the test on MCF7 breast was > 100 µM throughout. Also, the TGI in the test on NCI-H460 lung was > 100 µM.
Regarding `C=C1CN2CCc3c([nH]c4ccccc34)C2CC1CC(=O)N(C)C` (configuration not stated), the TGI in the test with SN12C renal, in the test on SF-295 CNS, in the test on KM12 colon, with SNB-19 CNS, in the test on UACC-257 melanoma and in the test on RPMI-8226 leukemia was > 309 µM throughout. Also, the TGI with UACC-62 melanoma and in the test on NCI-H460 lung was > 309 µM in each case.
Take `CC1CCc2c(sc3ncnc(N/N=C/c4ccc(Cl)cc4)c23)C1` (configuration not stated): the TGI in the test with SN12C renal is > 100 µM; in the test on SF-295 CNS, 75.5 µM; in the test on SNB-19 CNS, 93 µM; with UACC-257 melanoma, 70.3 µM; in the test with RPMI-8226 leukemia, > 100 µM; with UACC-62 melanoma, > 100 µM. In addition, in the test on NCI-H460 lung, the TGI was > 100 µM.
As to `CC(C)[Si](Oc1ccc(CC2N(C(=O)c3ccc([N+](=O)[O-])cc3)C(CCc3ccccc3)CC2(C)C=O)cc1)(C(C)C)C(C)C` (configuration not stated), the TGI in the test on T-47D breast was > 100 µM; in the test with SF-295 CNS, > 100 µM; in the test on SNB-19 CNS, 59.4 µM; in the test on UACC-257 melanoma it was > 100 µM; in the test on RPMI-8226 leukemia it was > 100 µM; with UACC-62 melanoma, > 100 µM.
Consider `CC(=O)OCC1OC(O[C@H]2C=C[C@@H](C(=O)OCc3ccccc3)n3c(=O)n(-c4ccccc4)c(=O)n32)C(OC(C)=O)C(OC(C)=O)C1OC(C)=O` (some centres not stated), for which the TGI was determined as 3.88 µM in the test with SN12C renal; 8.33 µM in the test with T-47D breast; 25.3 µM with SF-295 CNS; 12.2 µM in the test on KM12 colon; 30.1 µM in the test on SNB-19 CNS; 3.73 µM in the test with UACC-257 melanoma. In addition, the figures for the TGI with RPMI-8226 leukemia, in the test with UACC-62 melanoma and with NCI-H460 lung were 3.31 µM, 3.18 µM and 3.05 µM, respectively.
Regarding `C=C1CC[C@@H]2[C@](C)(COC(=O)CCC(=O)O)CCC[C@@]2(C)[C@@H]1CCC1=CC(=O)OC1`, the TGI in the test on SN12C renal, in the test on T-47D breast, with SF-295 CNS, in the test with KM12 colon, in the test with SNB-19 CNS and in the test with UACC-257 melanoma was > 100 µM in each case. The TGI in the test with MCF7 breast, with RPMI-8226 leukemia and in the test with UACC-62 melanoma was > 100 µM in each case.
For `Cn1c(=O)n(C2(C)CSC2)c2ccccc21`, the TGI in the test on SN12C renal, in the test with SF-295 CNS, in the test with KM12 colon, in the test on SNB-19 CNS, in the test on UACC-257 melanoma and in the test on RPMI-8226 leukemia was > 100 µM throughout. For the same molecule, the TGI in the test with UACC-62 melanoma and in the test on NCI-H460 lung was > 100 µM throughout.
Consider `N#C/C(=C\c1ccc[nH]1)C(=O)c1ccccc1`, for which the TGI in the test with SN12C renal, in the test on SF-295 CNS, with KM12 colon, in the test on SNB-19 CNS, with UACC-257 melanoma and with RPMI-8226 leukemia was > 100 µM throughout. The TGI in the test with UACC-62 melanoma and with NCI-H460 lung was > 100 µM throughout.
Consider `COc1ccc(-c2cc(=O)c3cc(O)ccc3o2)c(OC)c1OC`, for which the TGI in the test with SN12C renal is > 100 µM; in the test with SF-295 CNS it was 69.2 µM; with KM12 colon, 87.7 µM; in the test on SNB-19 CNS, > 100 µM; in the test with UACC-257 melanoma, > 100 µM; in the test with RPMI-8226 leukemia, 32.8 µM. Moreover, the TGI with UACC-62 melanoma is > 100 µM.
For `Cc1ccc(-c2cc(=O)c(=O)[nH][nH]2)cc1`, the TGI in the test on SN12C renal, with T-47D breast, in the test on SF-295 CNS, in the test with KM12 colon, in the test on UACC-257 melanoma and with MCF7 breast was > 100 µM throughout. For the same molecule, the TGI with UACC-62 melanoma and in the test on NCI-H460 lung was > 100 µM in each case.
For the molecule `COCCCNc1c2ccccc2nc2ccccc12`, the TGI in the test on SN12C renal came out at 15.1 µM; in the test on T-47D breast, 6.89 µM; in the test on SF-295 CNS it was 14.9 µM; in the test with KM12 colon, 24.6 µM; in the test on SNB-19 CNS it was 6.41 µM; in the test with UACC-257 melanoma it was 7.03 µM. The TGI was 5.27 µM in the test on MCF7 breast, 6.35 µM with UACC-62 melanoma and 3.55 µM in the test on NCI-H460 lung.
As for `COC(=O)c1c2c(cc3c1CC1(C3)Cc3cc4c(c(C(=O)OC)c3C1)CCC4)CCC2`, the TGI with SN12C renal, in the test with T-47D breast, with SF-295 CNS, in the test on KM12 colon, with UACC-257 melanoma and with MCF7 breast was > 100 µM each time. Moreover, the TGI in the test on RPMI-8226 leukemia and with UACC-62 melanoma was > 100 µM throughout.
For the molecule `COc1cccc(/C=N/[N-]C(N)=O)c1[O-].[Co+2].[OH3+].c1ccncc1`, the TGI in the test on SN12C renal, with SF-295 CNS, with KM12 colon, with UACC-257 melanoma, in the test on RPMI-8226 leukemia and in the test with UACC-62 melanoma was > 100 µM throughout. Also, the TGI in the test on NCI-H460 lung is > 100 µM.
For `C=C(C)CCC(O)[C@](C)(O)[C@H]1[C@H](O)C[C@@]2(C)[C@@H]3CCc4c(cc(OC5OC(CO)C(O)C(O)C5O)c(O)c4C)C3(C)C(=O)C[C@]12C` (some centres not stated), the TGI in the test on SN12C renal, in the test on T-47D breast, in the test with SF-295 CNS, in the test with KM12 colon, in the test on SNB-19 CNS and with UACC-257 melanoma was > 100 µM each time. Also, the TGI with MCF7 breast, in the test with UACC-62 melanoma and in the test on NCI-H460 lung was > 100 µM throughout.
With `O=C1N[C@H](C(=O)O)[C@@H](c2ccc(OCc3ccccc3)cc2)O1`, the TGI in the test on SN12C renal is > 100 µM; with T-47D breast, > 100 µM; in the test on SF-295 CNS it was 79.6 µM; with KM12 colon, > 100 µM; in the test with SNB-19 CNS it was 45 µM; with UACC-257 melanoma, > 100 µM. For the same molecule, the TGI with MCF7 breast, in the test on RPMI-8226 leukemia and with UACC-62 melanoma was > 100 µM in each case.
As for `COc1ccc(/C=C/C(=O)CCN2CCN(CCC(=O)/C=C/c3ccc(OC)cc3)CC2)cc1`, the TGI in the test with SN12C renal is 26 µM; in the test with SF-295 CNS, 20.8 µM; in the test on KM12 colon, 23 µM; with SNB-19 CNS, > 100 µM; with UACC-257 melanoma it was 29.1 µM; in the test on MCF7 breast it was 13.6 µM. Moreover, the values for the TGI in the test on UACC-62 melanoma and in the test on NCI-H460 lung were 27.2 µM and 23.1 µM, respectively.

(Values after PubChem BioAssay (NCI).)
